The subject of the assay is Dbl-inducible MEFs. Nature of the assay: Foci forming assay. To be noted: MEFs expressing Dbl, 10 μM 968. It counts as cell-based, mouse. The text has this: Inducible oncogenic Dbl cell lines were created using the TET-OFF system in mouse embryonic fibroblasts (MEFs) following the manufacturer's instructions (Clontech). Briefly, PCR products for onco-Dbl-containing NotI and XbaI restriction endonuclease sites were cloned in the per2.1 vector using the TOPO-TA cloning kit (Invitrogen) and subsequently subcloned into the p-TREHA vector (Clontech). The pTRE-HA-onco-Dbl was then co-transfected with pMET-Puro in a 20:1 ratio into parental MEFs (Clontech), which contained the transcriptional transactivator (tTa), with Lipofectamine (Invitrogen). Cells were placed under puromycin selection at 48 hours post transfection, and colonies were selected after 2-4 weeks for doxycycline-dependent expression of HA-onco-Dbl using HA.11 antibody (Covance). Cells were maintained in DMEM supplemented with 10% (v/v) Tet system-approved FBS (clontech) and 100 μg/mL G418 (Gibco). To suppress Dbl expression, 1 μg/mL doxycycline was added to the medium every 2 days. Cells were induced by re-plating in doxycycline-free medium where residual doxycycline was removed by replacing the medium 3 hours after plating. Immunofluorescence was conducted on cells grown 48-72 hours on glass cover slips and fixed with 3.7% formaldehyde. […] Digital images were collected using a Zeiss fluorescence microscope and AxioVision 3.1 software. […]

In the case of `CN(C)c1ccc(C2Nc3ccc4ccccc4c3C3=C2C(=O)CC(C)(C)C3)cc1Br` (stereo not shown) [Compound 968], the Dbl-induced focus formation result is “blocked”.
